Test results from patent US10577363B2, “Substituted piperidine compounds” (EPIZYME, INC., priority 2014, dated 2020).

Experiments:
SMYD3 [1] = molecular target: T1, SMYD3 (Homo sapiens (Human), UniProt Q9H7B4); experiment: SMYD3 biochemical assay (SPA, 3H-SAM methylation of MEKK2 protein substrate); details: average of n = 1 to n = 50; read-out: SMYD3 Biochem IC50
Summary of the method: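 SPA methyltransferase format: tag-cleaved human SMYD3, insect-cell GST-MEKK2 protein substrate, 3H-SAM donor, 30 min RT enzyme–compound preincubation, 100 uM cold SAM quench.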

SMYD3 [2] = molecular target: T1, SMYD3; experiment: SMYD3 cell assay (Trimethyl-MEKK2 In-Cell Western in 293T/17 cells); assay type: cell-based; details: average of n = 1 to n = 50; read-out: SMYD3 Cell IC50
Summary of the method: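 In-Cell Western readout: methanol-fixed cells stained for trimethyl-MEKK2 and flag tag, ratio per well normalized to DMSO and background controls.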

T1 sequence (Q9H7B4 whole entry): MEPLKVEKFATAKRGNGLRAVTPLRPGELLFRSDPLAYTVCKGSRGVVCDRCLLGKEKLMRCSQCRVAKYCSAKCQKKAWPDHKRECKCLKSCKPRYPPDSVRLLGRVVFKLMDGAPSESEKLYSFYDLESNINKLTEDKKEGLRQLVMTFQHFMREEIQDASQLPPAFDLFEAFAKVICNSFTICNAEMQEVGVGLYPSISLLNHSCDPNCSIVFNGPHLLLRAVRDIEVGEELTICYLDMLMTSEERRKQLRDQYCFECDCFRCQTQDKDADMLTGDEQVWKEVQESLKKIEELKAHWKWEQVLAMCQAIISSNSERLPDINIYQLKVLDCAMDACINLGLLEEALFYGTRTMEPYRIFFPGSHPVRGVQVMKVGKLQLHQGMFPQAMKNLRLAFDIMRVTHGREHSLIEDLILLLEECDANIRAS

| Structure (SMILES) | IC50 (SMYD3 [1]) | IC50 (SMYD3 [2]) |
| --- | --- | --- |
| C[C@@H]1CN(S(=O)(=O)N2CC[C@H](NC(=O)c3cc(C4CC4)on3)C[C@@H]2C)CCN1 [compound 634, 5-cyclopropyl-N-((2S,4S)-2-methyl-1-(((R)-3-methylpiperazin-1-yl)sulfonyl)piperidin-4-yl)isoxazole-3-carboxamide] | 31.8 nM | 176 nM |
| C[C@H]1C[C@@H](NC(=O)c2cc(C3CC3)on2)CCN1S(=O)(=O)CCCNCC(C)(C)C [compound 635, 5-cyclopropyl-N-((2S,4S)-2-methyl-1-((3-(neopentylamino)propyl)sulfonyl)piperidin-4-yl)isoxazole-3-carboxamide] | 32.5 nM | 318 nM |
| CCC1CN(S(=O)(=O)N2[C@@H]3CC[C@H]2C[C@@H](NC(=O)c2cc(C4CC4)on2)C3)CCN1 (stereo partly drawn) [compound 636, 5-cyclopropyl-N-((1R,3r,5S)-8-((3-ethylpiperazin-1-yl)sulfonyl)-8-azabicyclo[3.2.1]octan-3-yl)isoxazole-3-carboxamide] | 33.2 nM | 365 nM |
| C[C@H]1CN(S(=O)(=O)N2CCNCC2)[C@@H](C)C[C@H]1NC(=O)c1cc(C2CC2)on1 [compound 637, 5-cyclopropyl-N-((2S,4R,5S)-2,5-dimethyl-1-(piperazin-1-ylsulfonyl)piperidin-4-yl)isoxazole-3-carboxamide] | 33.4 nM | 203 nM |
| C[C@H]1C[C@@H](NC(=O)c2cc(C3CC3)on2)CCN1S(=O)(=O)N1CCNC(C)(C)C1 [compound 638, 5-cyclopropyl-N-((2S,4S)-1-((3,3-dimethylpiperazin-1-yl)sulfonyl)-2-methylpiperidin-4-yl)isoxazole-3-carboxamide] | 33.7 nM | 254 nM |
| C[C@H]1C[C@@H](NC(=O)c2cc(C3CC3)on2)CCN1S(=O)(=O)N1CCCN(C)CC1 [compound 639, 5-cyclopropyl-N-((2S,4S)-2-methyl-1-((4-methyl-1,4-diazepan-1-yl)sulfonyl)piperidin-4-yl)isoxazole-3-carboxamide] | 34.8 nM | 258 nM |
| CC(C)CNCCCS(=O)(=O)N1CC[C@H](NC(=O)c2cc(C3CC3)on2)C[C@@H]1C [compound 640, 5-cyclopropyl-N-((2S,4S)-1-((3-(isobutylamino)propyl)sulfonyl)-2-methylpiperidin-4-yl)isoxazole-3-carboxamide] | 35.7 nM | 480 nM |
| CN1CCN(S(=O)(=O)N2[C@@H]3CC[C@H]2C[C@@H](NC(=O)c2cc(C4CC4)on2)C3)CC1 [compound 641, 5-cyclopropyl-N-((1R,3r,5S)-8-((4-methylpiperazin-1-yl)sulfonyl)-8-azabicyclo[3.2.1]octan-3-yl)isoxazole-3-carboxamide] | 36.3 nM | 188 nM |
| C[C@@H]1CN(S(=O)(=O)CCCN)[C@H](C)C[C@@H]1NC(=O)c1cc(C2CC2)on1 [compound 642, N-((2R,4S,5R)-1-((3-aminopropyl)sulfonyl)-2,5-dimethylpiperidin-4-yl)-5-cyclopropylisoxazole-3-carboxamide] | 37.6 nM | 571 nM |
| O=C(N[C@H]1C[C@H]2CC[C@@H](C1)N2S(=O)(=O)N1CCNC(CO)C1)c1cc(C2CC2)on1 (stereo partly drawn) [compound 643, 5-cyclopropyl-N-((1R,3r,5S)-8-((3-(hydroxymethyl)piperazin-1-yl)sulfonyl)-8-azabicyclo[3.2.1]octan-3-yl)isoxazole-3-carboxamide] | 37.8 nM | 211 nM |
| C[C@@H]1C[C@H](NC(=O)c2cc(C3CC3)on2)CCN1C(=O)c1ccc(C2CCNCC2)cc1 [compound 644, 5-cyclopropyl-N-((2R,4R)-2-methyl-1-(4-(piperidin-4-yl)benzoyl)piperidin-4-yl)isoxazole-3-carboxamide] | 41.3 nM | 303 nM |
| C[C@H]1C[C@@H](NC(=O)c2cc(C3CC3)on2)CCN1S(=O)(=O)CCCNC(c1ccccc1)c1ccccc1 [compound 645, N-((2S,4S)-1-((3-(benzhydrylamino)propyl)sulfonyl)-2-methylpiperidin-4-yl)-5-cyclopropylisoxazole-3-carboxamide] | 44.4 nM | 575 nM |
| C[C@H]1CN(S(=O)(=O)NC2CCNCC2)CC[C@H]1NC(=O)c1cc(C2CC2)on1 [compound 646, 5-cyclopropyl-N-((3S,4R)-3-methyl-1-(N-(piperidin-4-yl)sulfamoyl)piperidin-4-yl)isoxazole-3-carboxamide] | 45.2 nM | 755 nM |
| O=C(N[C@H]1CCN(S(=O)(=O)CC2CCNCC2)[C@@H](Cc2ccccc2)C1)c1cc(C2CC2)on1 [compound 647, N-((2S,4S)-2-benzyl-1-((piperidin-4-ylmethyl)sulfonyl)piperidin-4-yl)-5-cyclopropylisoxazole-3-carboxamide] | 45.5 nM | 809 nM |
| COCCCN1CCC(CS(=O)(=O)N2CC[C@@H](NC(=O)c3cc(C4CC4)on3)[C@@H](C)C2)CC1 [compound 648, 5-cyclopropyl-N-((3S,4R)-1-(((1-(3-methoxypropyl)piperidin-4-yl)methyl)sulfonyl)-3-methylpiperidin-4-yl)isoxazole-3-carboxamide] | 46.8 nM | 331 nM |
| CNCCS(=O)(=O)N1[C@@H]2CC[C@H]1C[C@@H](NC(=O)c1cc(C3CC3)on1)C2 [compound 649, 5-cyclopropyl-N-((1R,3r,5S)-8-((2-(methylamino)ethyl)sulfonyl)-8-azabicyclo[3.2.1]octan-3-yl)isoxazole-3-carboxamide] | 47.2 nM | 261 nM |
| C[C@H]1C[C@@H](NC(=O)c2cc(C3CC3)on2)CCN1S(=O)(=O)NCCN [compound 650, N-((2S,4S)-1-(N-(2-aminoethyl)sulfamoyl)-2-methylpiperidin-4-yl)-5-cyclopropylisoxazole-3-carboxamide] | 49.1 nM | 4630 nM |
| CN(C)C1CCN(CCS(=O)(=O)N2[C@@H]3CC[C@H]2C[C@@H](NC(=O)c2cc(C4CC4)on2)C3)C1 (stereo partly drawn) [compound 651, 5-cyclopropyl-N-((1R,3r,5S)-8-((2-(3-(dimethylamino)pyrrolidin-1-yl)ethyl)sulfonyl)-8-azabicyclo[3.2.1]octan-3-yl)isoxazole-3-carboxamide] | 50.6 nM | 532 nM |
| C[C@@H]1C[C@@H](NC(=O)c2cc(C3CC3)on2)CCN1S(=O)(=O)N1CCNCC1 [compound 652, 5-cyclopropyl-N-((2R,4S)-2-methyl-1-(piperazin-1-ylsulfonyl)piperidin-4-yl)isoxazole-3-carboxamide] | 51.1 nM | 339 nM |
| C[C@H]1CN(S(=O)(=O)N(C)C2CCNCC2)CC[C@H]1NC(=O)c1cc(C2CC2)on1 [compound 653, 5-cyclopropyl-N-((3S,4R)-3-methyl-1-(N-methyl-N-(piperidin-4-yl)sulfamoyl)piperidin-4-yl)isoxazole-3-carboxamide] | 55 nM | 328 nM |
| COCCN1CCC(CS(=O)(=O)N2CC[C@@H](NC(=O)c3cc(C4CC4)on3)[C@@H](C)C2)CC1 [compound 654, 5-cyclopropyl-N-((3S,4R)-1-(((1-(2-methoxyethyl)piperidin-4-yl)methyl)sulfonyl)-3-methylpiperidin-4-yl)isoxazole-3-carboxamide] | 56 nM | 340 nM |
| C[C@H]1CN(S(=O)(=O)CC2CCN(Cc3ccccc3)CC2)CC[C@H]1NC(=O)c1cc(C2CC2)on1 [compound 655, N-((3S,4R)-1-(((1-benzylpiperidin-4-yl)methyl)sulfonyl)-3-methylpiperidin-4-yl)-5-cyclopropylisoxazole-3-carboxamide] | 56.4 nM | 497 nM |
| CN1CCN(S(=O)(=O)N2[C@@H]3CC[C@H]2C[C@@H](NC(=O)c2cc(C4CC4)on2)C3)CC1(C)C [compound 656, 5-cyclopropyl-N-((1R,3r,5S)-8-((3,3,4-trimethylpiperazin-1-yl)sulfonyl)-8-azabicyclo[3.2.1]octan-3-yl)isoxazole-3-carboxamide] | 59.8 nM | 441 nM |
| C[C@@H]1CN(C(=O)c2ccc(C(C)(C)N)cc2)[C@H](C)C[C@@H]1NC(=O)c1cc(C2CC2)on1 [compound 657, N-((2R,4S,5R)-1-(4-(2-aminopropan-2-yl)benzoyl)-2,5-dimethylpiperidin-4-yl)-5-cyclopropylisoxazole-3-carboxamide] | 63.4 nM | 634 nM |
| C[C@@H]1C[C@H](NC(=O)c2cc(C3CC3)on2)CCN1C(=O)c1ccc(CN2CCNCC2)cc1 [compound 658, 5-cyclopropyl-N-((2R,4R)-2-methyl-1-(4-(piperazin-1-ylmethyl)benzoyl)piperidin-4-yl)isoxazole-3-carboxamide] | 64.7 nM | 1400 nM |
| CN(C1CCN(Cc2ccccc2)CC1)S(=O)(=O)N1[C@@H]2CC[C@H]1C[C@@H](NC(=O)c1cc(C3CC3)on1)C2 [compound 659, N-((1R,3r,5S)-8-(N-(1-benzylpiperidin-4-yl)-N-methylsulfamoyl)-8-azabicyclo[3.2.1]octan-3-yl)-5-cyclopropylisoxazole-3-carboxamide] | 66.4 nM | 578 nM |
| CC1CN(S(=O)(=O)N2[C@@H]3CC[C@H]2C[C@@H](NC(=O)c2cc(C4CC4)on2)C3)CCN1C (stereo partly drawn) [compound 660, 5-cyclopropyl-N-((1R,3r,5S)-8-((3,4-dimethylpiperazin-1-yl)sulfonyl)-8-azabicyclo[3.2.1]octan-3-yl)isoxazole-3-carboxamide] | 66.7 nM | 414 nM |
| C[C@@H]1CN(S(=O)(=O)N2CC[C@H](NC(=O)c3cc(C4CC4)on3)C[C@@H]2C)[C@@H](C)CN1 [compound 661, 5-cyclopropyl-N-((2S,4S)-1-(((2S,5R)-2,5-dimethylpiperazin-1-yl)sulfonyl)-2-methylpiperidin-4-yl)isoxazole-3-carboxamide] | 77.3 nM | 490 nM |
